Results published in ChEMBL document CHEMBL4507276 (2021).

Key:
[1] = molecular target: Tyrosine-protein kinase ABL1 (Homo sapiens) (UniProt P00519); details: Compound concentration 1000.0 nM
[2] = molecular target: Calcium/calmodulin-dependent protein kinase type 1 (Homo sapiens) (UniProt Q14012); assay: CAMK1_A Invitrogen selectivity data (BI); details: Compound concentration 3.0 uM
[3] = molecular target: Leucine-rich repeat serine/threonine-protein kinase 2 (Homo sapiens) (UniProt Q5S007); assay: LRRK2 Invitrogen selectivity data (BI); details: Compound concentration 3.0 uM
[4] = molecular target: T1, Beta-adrenergic receptor kinase 1 (Homo sapiens) (UniProt P25098); assay: ADRBK1 Invitrogen selectivity data (BI); details: Compound concentration 3.0 uM
T1 sequence (whole entry): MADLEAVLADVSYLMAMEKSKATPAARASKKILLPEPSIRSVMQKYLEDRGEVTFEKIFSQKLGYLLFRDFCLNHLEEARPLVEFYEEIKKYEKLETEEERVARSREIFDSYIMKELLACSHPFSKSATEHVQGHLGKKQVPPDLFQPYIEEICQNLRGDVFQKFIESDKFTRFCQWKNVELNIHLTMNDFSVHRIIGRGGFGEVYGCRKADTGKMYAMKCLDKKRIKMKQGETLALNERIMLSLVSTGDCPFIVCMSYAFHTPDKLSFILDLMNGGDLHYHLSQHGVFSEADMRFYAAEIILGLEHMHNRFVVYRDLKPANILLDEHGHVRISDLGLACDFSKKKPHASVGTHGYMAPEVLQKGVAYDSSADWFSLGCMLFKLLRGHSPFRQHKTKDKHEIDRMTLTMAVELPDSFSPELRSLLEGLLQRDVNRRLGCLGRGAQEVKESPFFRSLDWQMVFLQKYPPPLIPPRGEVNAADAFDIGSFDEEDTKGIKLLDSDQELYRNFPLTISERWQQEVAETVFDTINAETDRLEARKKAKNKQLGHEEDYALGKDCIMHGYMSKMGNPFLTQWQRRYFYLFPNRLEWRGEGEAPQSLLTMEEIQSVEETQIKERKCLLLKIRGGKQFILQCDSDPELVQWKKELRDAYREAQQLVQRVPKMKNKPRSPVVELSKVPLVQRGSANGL

[5] = molecular target: Calcium/calmodulin-dependent protein kinase type II subunit alpha (Homo sapiens) (UniProt Q9UQM7); assay: CAMK2ALPHA(H) Cerep selectivity data (BI); details: Compound concentration 20.0 uM
[6] = molecular target: L-type Ca2+ channel (diltiazem site), Cav1.2 alpha-1C (Rattus norvegicus, UniProt P22002); assay: CA+/DILSI/R Cerep selectivity data (BI); set-up: mode of action inhibitor; details: rat brain, probe [3H]diltiazem, compound concentration 20 uM, read-out: % Ctrl
L-type Ca2+ channel (diltiazem site), Cav1.2 alpha-1C, sequence (P22002 whole entry): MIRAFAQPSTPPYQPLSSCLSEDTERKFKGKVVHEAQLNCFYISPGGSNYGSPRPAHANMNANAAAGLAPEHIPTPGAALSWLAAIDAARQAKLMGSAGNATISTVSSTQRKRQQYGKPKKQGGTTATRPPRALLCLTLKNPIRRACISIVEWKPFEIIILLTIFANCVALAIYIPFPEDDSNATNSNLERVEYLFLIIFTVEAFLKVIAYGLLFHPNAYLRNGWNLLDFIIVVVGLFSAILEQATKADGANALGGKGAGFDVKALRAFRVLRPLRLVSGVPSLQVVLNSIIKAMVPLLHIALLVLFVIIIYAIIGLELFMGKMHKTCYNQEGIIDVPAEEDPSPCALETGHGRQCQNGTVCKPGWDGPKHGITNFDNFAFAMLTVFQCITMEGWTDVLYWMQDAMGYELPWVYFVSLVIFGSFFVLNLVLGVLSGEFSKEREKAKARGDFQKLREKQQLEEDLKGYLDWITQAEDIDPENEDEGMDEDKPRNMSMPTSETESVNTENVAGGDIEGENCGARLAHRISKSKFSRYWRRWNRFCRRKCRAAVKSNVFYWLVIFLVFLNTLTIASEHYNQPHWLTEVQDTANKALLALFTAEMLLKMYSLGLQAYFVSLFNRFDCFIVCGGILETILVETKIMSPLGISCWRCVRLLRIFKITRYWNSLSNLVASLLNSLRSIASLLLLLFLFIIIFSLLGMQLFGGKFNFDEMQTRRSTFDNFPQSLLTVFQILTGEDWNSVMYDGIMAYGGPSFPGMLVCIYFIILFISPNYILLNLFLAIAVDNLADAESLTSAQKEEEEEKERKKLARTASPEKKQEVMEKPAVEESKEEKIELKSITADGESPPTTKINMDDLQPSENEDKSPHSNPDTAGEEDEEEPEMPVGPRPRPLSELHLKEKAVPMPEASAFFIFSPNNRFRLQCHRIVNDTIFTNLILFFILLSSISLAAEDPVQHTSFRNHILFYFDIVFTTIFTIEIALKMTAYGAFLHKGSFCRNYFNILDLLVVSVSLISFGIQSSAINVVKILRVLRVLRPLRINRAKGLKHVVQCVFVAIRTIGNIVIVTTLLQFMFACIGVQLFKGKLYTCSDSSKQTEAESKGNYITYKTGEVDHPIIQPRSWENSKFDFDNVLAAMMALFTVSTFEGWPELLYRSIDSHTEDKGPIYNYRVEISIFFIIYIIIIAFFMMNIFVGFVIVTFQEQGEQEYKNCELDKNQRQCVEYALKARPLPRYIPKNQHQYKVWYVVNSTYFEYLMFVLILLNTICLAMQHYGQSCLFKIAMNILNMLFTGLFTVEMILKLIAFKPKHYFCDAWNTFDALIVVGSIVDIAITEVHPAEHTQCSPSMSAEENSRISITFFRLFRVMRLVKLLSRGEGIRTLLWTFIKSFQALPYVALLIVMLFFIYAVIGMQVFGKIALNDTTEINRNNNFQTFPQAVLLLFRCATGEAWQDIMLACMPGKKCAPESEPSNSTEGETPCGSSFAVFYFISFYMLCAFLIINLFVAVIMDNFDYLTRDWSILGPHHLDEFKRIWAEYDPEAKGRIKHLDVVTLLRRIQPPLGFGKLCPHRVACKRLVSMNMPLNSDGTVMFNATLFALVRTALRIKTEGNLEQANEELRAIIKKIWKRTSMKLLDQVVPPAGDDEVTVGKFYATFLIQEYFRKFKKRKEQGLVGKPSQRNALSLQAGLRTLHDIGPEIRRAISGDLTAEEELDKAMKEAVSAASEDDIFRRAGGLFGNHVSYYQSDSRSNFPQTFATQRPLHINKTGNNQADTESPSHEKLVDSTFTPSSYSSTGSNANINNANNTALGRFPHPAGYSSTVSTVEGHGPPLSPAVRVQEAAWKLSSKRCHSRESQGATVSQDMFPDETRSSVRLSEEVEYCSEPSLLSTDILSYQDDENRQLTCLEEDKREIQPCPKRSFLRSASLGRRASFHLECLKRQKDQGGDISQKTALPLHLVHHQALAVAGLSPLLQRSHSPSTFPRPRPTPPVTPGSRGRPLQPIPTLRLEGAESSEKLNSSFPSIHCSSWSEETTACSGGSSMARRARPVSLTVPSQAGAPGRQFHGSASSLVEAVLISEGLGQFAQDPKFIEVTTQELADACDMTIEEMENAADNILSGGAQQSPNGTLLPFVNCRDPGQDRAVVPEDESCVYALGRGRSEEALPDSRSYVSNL

[7] = molecular target: MAP kinase-interacting serine/threonine-protein kinase 1 (Homo sapiens) (UniProt Q9BUB5); assay: MKNK1 Invitrogen selectivity data (BI); details: Compound concentration 3.0 uM
MAP kinase-interacting serine/threonine-protein kinase 1 (Homo sapiens), sequence (Q9BUB5 whole entry, looked up): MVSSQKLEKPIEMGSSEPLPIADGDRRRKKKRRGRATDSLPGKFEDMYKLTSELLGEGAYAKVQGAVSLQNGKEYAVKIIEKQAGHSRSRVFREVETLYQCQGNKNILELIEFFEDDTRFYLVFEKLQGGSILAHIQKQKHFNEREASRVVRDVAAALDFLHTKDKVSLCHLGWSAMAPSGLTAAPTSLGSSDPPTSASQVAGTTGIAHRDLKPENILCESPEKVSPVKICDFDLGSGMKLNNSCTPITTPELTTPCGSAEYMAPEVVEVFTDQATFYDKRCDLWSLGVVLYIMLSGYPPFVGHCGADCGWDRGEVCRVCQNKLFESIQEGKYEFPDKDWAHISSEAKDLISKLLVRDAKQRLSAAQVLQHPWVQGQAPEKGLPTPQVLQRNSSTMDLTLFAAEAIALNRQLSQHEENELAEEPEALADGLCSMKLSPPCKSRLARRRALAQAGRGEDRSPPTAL

[8] = molecular target: Ribosomal protein S6 kinase alpha-5 (Homo sapiens) (UniProt O75582); assay: RPS6KA5 Invitrogen selectivity data (BI); details: Compound concentration 3.0 uM
[9] = molecular target: T2, Mitogen-activated protein kinase 13 (Homo sapiens) (UniProt O15264); assay: MAPK13 Invitrogen selectivity data (BI); details: Compound concentration 3.0 uM
T2 sequence (whole entry): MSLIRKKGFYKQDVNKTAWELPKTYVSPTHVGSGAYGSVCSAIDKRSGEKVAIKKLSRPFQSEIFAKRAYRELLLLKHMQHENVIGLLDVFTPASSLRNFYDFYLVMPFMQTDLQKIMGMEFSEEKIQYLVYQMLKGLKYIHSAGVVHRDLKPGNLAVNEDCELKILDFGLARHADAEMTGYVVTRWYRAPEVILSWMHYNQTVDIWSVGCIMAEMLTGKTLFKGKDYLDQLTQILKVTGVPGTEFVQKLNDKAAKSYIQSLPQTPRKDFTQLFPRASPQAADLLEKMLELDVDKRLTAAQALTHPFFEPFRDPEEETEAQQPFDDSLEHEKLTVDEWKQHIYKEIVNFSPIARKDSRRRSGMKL

[10] = molecular target: Delta-type opioid receptor (Homo sapiens) (UniProt P41143); assay: DELTA2/H Cerep selectivity data (BI); details: Compound concentration 20.0 uM
[11] = molecular target: Sphingosine kinase 2 (Homo sapiens) (UniProt Q9NRA0); assay: SPHK2 Invitrogen selectivity data (BI); details: Compound concentration 3.0 uM
Sphingosine kinase 2 (Homo sapiens), sequence (Q9NRA0 whole entry): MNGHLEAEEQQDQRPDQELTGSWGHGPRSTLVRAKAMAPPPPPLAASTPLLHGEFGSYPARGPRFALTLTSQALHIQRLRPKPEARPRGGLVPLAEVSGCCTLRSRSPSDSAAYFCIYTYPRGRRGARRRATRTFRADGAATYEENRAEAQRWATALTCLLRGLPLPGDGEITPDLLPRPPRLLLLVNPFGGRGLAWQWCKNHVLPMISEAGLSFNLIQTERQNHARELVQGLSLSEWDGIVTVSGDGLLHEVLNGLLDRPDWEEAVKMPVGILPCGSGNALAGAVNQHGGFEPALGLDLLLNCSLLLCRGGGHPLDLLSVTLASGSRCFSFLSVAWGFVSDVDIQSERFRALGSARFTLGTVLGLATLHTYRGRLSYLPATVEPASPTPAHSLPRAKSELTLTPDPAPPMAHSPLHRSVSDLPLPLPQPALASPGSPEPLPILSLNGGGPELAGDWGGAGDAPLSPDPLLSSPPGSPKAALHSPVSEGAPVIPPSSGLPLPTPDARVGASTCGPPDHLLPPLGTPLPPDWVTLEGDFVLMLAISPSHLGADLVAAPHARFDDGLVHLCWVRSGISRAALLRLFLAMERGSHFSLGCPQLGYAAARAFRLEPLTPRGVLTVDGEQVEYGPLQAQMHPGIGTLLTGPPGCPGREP

[12] = molecular target: Homeodomain-interacting protein kinase 1 (Homo sapiens) (UniProt Q86Z02); assay: HIPK1 Invitrogen selectivity data (BI); details: Compound concentration 3.0 uM
Homeodomain-interacting protein kinase 1 (Homo sapiens), sequence (Q86Z02 whole entry, looked up): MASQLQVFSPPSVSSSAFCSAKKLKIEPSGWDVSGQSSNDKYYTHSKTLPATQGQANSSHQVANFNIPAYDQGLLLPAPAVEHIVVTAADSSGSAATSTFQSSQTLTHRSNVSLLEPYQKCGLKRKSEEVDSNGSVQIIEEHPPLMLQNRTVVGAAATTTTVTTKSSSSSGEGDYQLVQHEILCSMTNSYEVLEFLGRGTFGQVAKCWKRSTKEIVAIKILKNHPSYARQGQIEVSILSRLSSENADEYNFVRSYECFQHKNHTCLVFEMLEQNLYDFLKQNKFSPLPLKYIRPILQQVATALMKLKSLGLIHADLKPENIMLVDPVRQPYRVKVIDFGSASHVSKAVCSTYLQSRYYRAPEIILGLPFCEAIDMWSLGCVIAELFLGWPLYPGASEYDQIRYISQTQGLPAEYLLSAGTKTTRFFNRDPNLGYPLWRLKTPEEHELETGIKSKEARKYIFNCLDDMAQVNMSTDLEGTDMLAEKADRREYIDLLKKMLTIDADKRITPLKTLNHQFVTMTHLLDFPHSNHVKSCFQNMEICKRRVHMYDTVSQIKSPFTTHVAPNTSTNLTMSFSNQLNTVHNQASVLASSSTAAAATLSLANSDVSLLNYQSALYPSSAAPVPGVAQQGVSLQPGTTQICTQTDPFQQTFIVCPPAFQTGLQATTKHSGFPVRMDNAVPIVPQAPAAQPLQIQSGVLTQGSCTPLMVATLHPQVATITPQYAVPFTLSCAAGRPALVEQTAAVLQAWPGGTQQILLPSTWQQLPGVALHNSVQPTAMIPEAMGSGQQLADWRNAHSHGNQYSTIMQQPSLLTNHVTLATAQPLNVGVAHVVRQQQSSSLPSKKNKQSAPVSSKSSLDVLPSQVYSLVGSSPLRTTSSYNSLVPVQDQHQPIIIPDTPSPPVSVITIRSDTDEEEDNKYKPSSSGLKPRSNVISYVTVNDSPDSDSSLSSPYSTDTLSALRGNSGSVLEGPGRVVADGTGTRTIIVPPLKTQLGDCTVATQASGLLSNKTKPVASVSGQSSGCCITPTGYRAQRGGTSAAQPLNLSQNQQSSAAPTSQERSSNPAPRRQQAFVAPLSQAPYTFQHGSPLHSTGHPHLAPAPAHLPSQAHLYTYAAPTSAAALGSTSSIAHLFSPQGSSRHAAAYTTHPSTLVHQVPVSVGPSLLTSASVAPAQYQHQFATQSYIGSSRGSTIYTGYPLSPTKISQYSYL

[13] = molecular target: Mitogen-activated protein kinase kinase kinase kinase 4 (Homo sapiens) (UniProt O95819); assay: MAP4K4 Invitrogen selectivity data (BI); details: Compound concentration 3.0 uM
[14] = molecular target: Ephrin type-A receptor 4 (Homo sapiens) (UniProt P54764); assay: EPHA4 Invitrogen selectivity data (BI); details: Compound concentration 3.0 uM
[15] = molecular target: Dual specificity tyrosine-phosphorylation-regulated kinase 1A (Homo sapiens) (UniProt Q13627); assay: DYRK1A Invitrogen selectivity data (BI); details: Compound concentration 3.0 uM
[16] = test system: Serine/threonine-protein kinase B-raf (Homo sapiens), P15056 [V600E]; assay: BRAF V599E Invitrogen selectivity data (BI); details: Compound concentration 3.0 uM
[17] = molecular target: T3, Serine/threonine-protein kinase NLK (Homo sapiens) (UniProt Q9UBE8); assay: NLK Invitrogen selectivity data (BI); details: Compound concentration 3.0 uM
T3 sequence (whole entry): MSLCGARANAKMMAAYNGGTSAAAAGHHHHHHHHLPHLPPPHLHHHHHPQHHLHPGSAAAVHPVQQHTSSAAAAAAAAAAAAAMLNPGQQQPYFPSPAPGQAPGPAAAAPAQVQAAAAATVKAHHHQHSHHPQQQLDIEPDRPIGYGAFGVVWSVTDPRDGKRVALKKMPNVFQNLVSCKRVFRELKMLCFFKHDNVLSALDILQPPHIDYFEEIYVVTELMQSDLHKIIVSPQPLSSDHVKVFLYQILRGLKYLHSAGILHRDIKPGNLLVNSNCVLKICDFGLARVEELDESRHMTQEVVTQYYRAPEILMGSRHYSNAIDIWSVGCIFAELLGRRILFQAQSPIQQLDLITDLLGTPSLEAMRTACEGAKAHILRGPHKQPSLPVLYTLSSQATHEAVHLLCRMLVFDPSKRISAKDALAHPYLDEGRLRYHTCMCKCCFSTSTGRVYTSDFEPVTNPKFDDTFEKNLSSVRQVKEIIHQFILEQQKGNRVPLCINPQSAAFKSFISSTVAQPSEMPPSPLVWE

[18] = molecular target: Melanocortin receptor 4 (Homo sapiens) (UniProt P32245); assay: MC4/HU Cerep selectivity data (BI); details: Compound concentration 20.0 uM
Melanocortin receptor 4 (Homo sapiens), sequence (P32245 whole entry): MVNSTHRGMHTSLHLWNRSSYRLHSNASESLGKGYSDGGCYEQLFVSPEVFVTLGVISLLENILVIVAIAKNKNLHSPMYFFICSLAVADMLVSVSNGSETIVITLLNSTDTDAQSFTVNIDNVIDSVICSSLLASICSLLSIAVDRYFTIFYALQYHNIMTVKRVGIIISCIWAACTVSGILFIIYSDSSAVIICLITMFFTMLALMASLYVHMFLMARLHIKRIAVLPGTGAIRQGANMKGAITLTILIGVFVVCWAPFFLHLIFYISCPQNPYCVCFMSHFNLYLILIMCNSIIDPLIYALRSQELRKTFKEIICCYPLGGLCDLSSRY

[19] = molecular target: T4, Dual specificity mitogen-activated protein kinase kinase 6 (Homo sapiens) (UniProt P52564); assay: MAP2K6 Invitrogen selectivity data (BI); details: Compound concentration 3.0 uM
T4 sequence (whole entry): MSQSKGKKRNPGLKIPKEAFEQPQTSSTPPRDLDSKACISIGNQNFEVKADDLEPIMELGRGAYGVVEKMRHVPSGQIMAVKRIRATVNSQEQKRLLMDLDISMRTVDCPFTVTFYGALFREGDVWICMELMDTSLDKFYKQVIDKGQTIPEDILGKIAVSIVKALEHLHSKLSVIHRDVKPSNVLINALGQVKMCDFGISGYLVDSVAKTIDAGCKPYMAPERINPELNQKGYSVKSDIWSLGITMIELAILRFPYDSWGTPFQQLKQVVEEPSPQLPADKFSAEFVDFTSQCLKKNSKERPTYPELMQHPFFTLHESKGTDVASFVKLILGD

| SMILES | residual activity [1] [%] | residual activity [2] [%] | residual activity [3] [%] | residual activity [4] [%] | residual activity [5] [%] | activity at 20 µM [6] | residual activity [7] [%] | residual activity [8] [%] | residual activity [9] [%] | residual activity [10] [%] | residual activity [11] [%] | residual activity [12] [%] | residual activity [13] [%] | residual activity [14] [%] | residual activity [15] [%] | residual activity [16] [%] | residual activity [17] [%] | residual activity [18] [%] | residual activity [19] [%] |
| --- | --- | --- | --- | --- | --- | --- | --- | --- | --- | --- | --- | --- | --- | --- | --- | --- | --- | --- | --- |
| CN(C)C(=O)Cn1cc(-c2nc(C3(c4ccc(-c5cnc(N)nc5)cc4)CC3)no2)cn1 [BI 0153] | 100 |  |  |  |  |  |  |  |  |  |  |  |  |  |  |  |  |  |  |
| CN(C)C(=O)Cn1cc(-c2nc([C@@](C)(c3ccc(-c4cnc(N)nc4)cc3)C3CC3)no2)cn1 [BI 665915] |  | 102 | 96 | 98.5 | 111 | 119% (not active) | 99 | 97.5 | 96.5 | 100 | 97 | 97 | 96.5 | 95 | 100 | 97 | 93 | 109 | 103 |
